Test results taken from US9931324B2, “Indolizine derivatives and their use in neurodegenerative diseases” (Merck Patent GmbH, priority 2014, dated 2018).
pIC50: −log10 of the molar value.

How the values were obtained:
P2X7 [1] = biological target: T1, P2X7 (Homo sapiens, UniProt Q99572); assay: Pore permeation assay (YO PRO dye uptake, BzATP-induced); assay type: cell-based; parameters: expressed in transfected cells; host or cells: HEK293; conditions: HEK293 transfected with human P2X7 receptor, BzATP 10 uM, read-out: hP2X7 IC50
T1 sequence (Q99572 1-595): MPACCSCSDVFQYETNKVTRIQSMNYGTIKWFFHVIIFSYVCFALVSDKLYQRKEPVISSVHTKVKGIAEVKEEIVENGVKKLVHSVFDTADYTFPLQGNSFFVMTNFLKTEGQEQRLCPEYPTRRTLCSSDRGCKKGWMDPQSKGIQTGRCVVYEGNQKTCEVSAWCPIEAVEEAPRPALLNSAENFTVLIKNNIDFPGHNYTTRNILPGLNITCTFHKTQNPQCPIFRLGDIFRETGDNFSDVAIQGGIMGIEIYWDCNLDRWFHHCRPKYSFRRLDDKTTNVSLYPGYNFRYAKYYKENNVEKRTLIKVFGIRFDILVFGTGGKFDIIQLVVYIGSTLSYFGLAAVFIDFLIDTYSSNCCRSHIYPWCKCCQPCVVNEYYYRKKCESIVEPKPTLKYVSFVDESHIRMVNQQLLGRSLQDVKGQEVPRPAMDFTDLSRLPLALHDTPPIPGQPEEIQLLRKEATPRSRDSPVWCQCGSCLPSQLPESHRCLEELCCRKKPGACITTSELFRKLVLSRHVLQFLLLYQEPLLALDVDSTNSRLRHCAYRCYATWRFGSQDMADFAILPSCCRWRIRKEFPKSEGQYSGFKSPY
Experimental: Agonist-induced pore formation was determined by measuring cellular uptake of YO PRO fluorescence dye in HEK293 transfected with human P2X7 receptor. A HEK293 cell over expressing human P2X7 was harvested using HQTase reagent to detach the cells from T75 cm flask. The harvested cells are centrifuged @1200 rpm for 5 min at room temperature. The viability of cells was determined by Trypan blue dye and the cells are plated @10,000 cell/well in 50 ul volume in a 384W BD Poly lysine coated plate and incubated overnight at 37 C. After overnight incubation, the culture medium was replaced with 35 ul/well assay buffer (5 mM KCl, 0.1 mM CaCl2, 5 mM Glucose, 10 mM HEPES buffer pH7.4 containing 125 mM NaCl. The serial dilution of compounds was performed using Bravo liquid handling instrument and the compounds were added using Bravo to the cell assay plate starting at 2.5 uM with three dilutions for 10 points. The positive control inhibitor compound was added to column 23. The plate was shaken slowly on a plate shaker for 10 seconds. The cells were incubated with the compound for 20 minutes at room temperature. After the incubation period, YO PRO dye (1 uM) along with BzATP (10 uM) were added to cells at 10 ul/well. The plate was centrifuged at 1000 rpm for 5 seconds and incubated at room temperature for 30 minutes. The uptake of YO PRO dye into the cells was measured using Envision Fluorescence plate reader instrument (Perkin Elmer).

P2X7 [2] = biological target: T1, P2X7; assay: IL-1β release assay in THP-1 cells (sandwich ELISA, BzATP-stimulated); assay type: cell-based; parameters: endogenous in cells; host or cells: THP-1 cells (PMA-differentiated, LPS-primed); conditions: LPS primed, 0.8 mM BzATP, mature IL-1β release, read-out: hTHP-1/IL-ib IC50
Experimental: IL-1β release assay: The activation of P2X7 by ATP leads to a fast transient activation of cells resulting in influx of Ca^2+ followed by conversion of pro-IL-1β to active IL-1β. The functional activity of P2X7 compounds was measured by the release of mature IL-1β in the culture medium of THP-1 cells, detected by sandwich ELISA. Cells were maintained in complete growth medium (RPMI 1640+10% HI-FCS+2 mM L-glutamine+1× PS). […] THP-1 cells were harvested from the flask in 50 ml by centrifugation for 3 min at 100 g. The cells were resuspended to 2×10^5 cells/ml in medium supplemented with 0.5 μM PMA and incubated. The cells were washed and resuspended to 1.5×10^5 cells/ml in medium complemented with 10 ng/ml LPS, and the cells were primed for 4 h at 37° C., 5% CO2. After addition of 20 μL of prediluted test compounds, blank, standard and control reagents, cells were incubated for a further 20 min at 37° C. and stimulated with 0.8 mM BzATP for 30 minutes. The cells were centrifuged, supernatant was collected and the presence of mature IL-1β was detected using Dual human IL-1b kit following manufacturer's instruction. The tetrahydrobenzodiazepine analogs effectively modulated the activity of P2X7 in the cells as measured by the levels of pro-inflammatory cytokine IL-1β, which is released by the activation of P2X7 receptor.

Question: What does the source list for O=C(NCC1(O)CCC(F)(F)CC1)c1cc(CC2CCOC2)n2cccc(Cl)c12 (centres unmarked) [Compound 47, 8-chloro-N-((4,4-difluoro-1-hydroxycyclohexyl)methyl)-3-((tetrahydrofuran-3-yl)methyl)indolizine-1-carboxamide]?
Answer: pIC50 (P2X7 [1]): 7.00 to 8.00; pIC50 (P2X7 [2]): 7.00 to 8.00

Question: With COCCc1cc(C(=O)NCC2(O)CCCCCC2)c2c(Cl)cccn12 [Compound 35, 8-chloro-N-((1-hydroxycycloheptyl)methyl)-3-(2-methoxyethyl)indolizine-1-carboxamide] as the molecule, how does the pIC50 (P2X7 [1]) read?
Answer: Its pIC50 is 7.00 to 8.00.

Question: What about the pIC50 (P2X7 [2]) of the same molecule?
Answer: The pIC50 was 7.00 to 8.00.

Question: CC1CC(CNC(=O)c2cc(CCO)n3cccc(Cl)c23)CCC1(F)F (centres unmarked) [Compound 32, 8-chloro-N-((4,4-difluoro-3-methylcyclohexyl)methyl)-3-(2-hydroxyethyl) indolizine-1-carboxamide] was tested. Which pIC50 (P2X7 [1]) did it give?
Answer: Its pIC50 is > 8.00.

Question: What about the pIC50 (P2X7 [2]) of the same molecule?
Answer: Its pIC50 is 7.00 to 8.00.

Question: COCCc1cc(C(=O)NCC2CCC(F)(F)CC2)c2c(C(F)(F)F)cccn12 [Compound 26, 3-(2-Methoxy-ethyl)-8-trifluoromethyl-indolizine-1-carboxylic Acid (4,4-difluorocyclohexylmethyl)-amide] was tested. Which pIC50 (P2X7 [1]) did it give?
Answer: The pIC50 was 6.30 to 7.00.

Question: How did the pIC50 (P2X7 [1]) turn out when COCCc1cc(C(=O)NCc2cccc(C(F)(F)F)c2Cl)c2c(Cl)cccn12 [Compound 3, 8-chloro-N-(2-chloro-3-(trifluoromethyl)benzyl)-3-(2-methoxyethyl) indolizine-1-carboxamide] was run?
Answer: Its pIC50 is 6.30 to 7.00.

Question: How did the pIC50 (P2X7 [1]) turn out when C[C@@H]1CCC[C@](O)(CNC(=O)c2cc(C3CCOCC3)n3cccc(Cl)c23)C1 [Compound 27, 8-chloro-N-(((1R,3R)-1-hydroxy-3-methylcyclohexyl)methyl)-3-(tetrahydro-2H-pyran-4-yl)indolizine-1-carboxamide] was run?
Answer: The pIC50 was 7.00 to 8.00.

Question: How did the pIC50 (P2X7 [1]) turn out when O=C(NCC1(O)CCCC(F)(F)C1)c1cc(C2CCC2)n2cccc(Cl)c12 (centres unmarked) [Compound 20, 8-chloro-3-cyclobutyl-N-((3,3-difluoro-1-hydroxycyclohexyl)methyl) indolizine-1-carboxamide] was run?
Answer: Its pIC50 is 7.00 to 8.00.

Question: How did the pIC50 (P2X7 [1]) turn out when C[C@@H]1CCC[C@](O)(CNC(=O)c2cc(C3CCOC3)n3cccc(Cl)c23)C1 (stereo partly drawn) [Compound 38, 8-chloro-N-(((1R,3R)-1-hydroxy-3-methylcyclohexyl)methyl)-3-(tetrahydrofuran-3-yl)indolizine-1-carboxamide] was run?
Answer: Its pIC50 is 7.00 to 8.00.

Question: O=C(NCC1CCC(F)(F)CC1)c1ccn2cccc(Cl)c12 [Compound 42] was tested. Which pIC50 (P2X7 [1]) did it give?
Answer: The pIC50 was 6.30 to 7.00.

Question: With COCCc1cc(C(=O)NCC2CCC(F)(F)CC2)c2c(C)cccn12 [Compound 25, 3-(2-Methoxy-ethyl)-8-methyl-indolizine-1-carboxylic Acid (4,4-difluoro-cyclohexylmethyl)-amide] as the molecule, how does the pIC50 (P2X7 [1]) read?
Answer: Its pIC50 is 6.30 to 7.00.

Question: O=C(NCC1(O)CCCC(C(F)(F)F)C1)c1cc(C2CCOC2)n2cccc(Cl)c12 (centres unmarked) [Compound 74, 8-chloro-N-((1-hydroxy-3-(trifluoromethyl)cyclohexyl)methyl)-3-(tetrahydrofuran-3-yl)indolizine-1-carboxamide] was tested. Which pIC50 (P2X7 [1]) did it give?
Answer: Its pIC50 is < 6.00.

Question: COCCc1cc(C(=O)NCCC2(O)CCCC2)c2c(Cl)cccn12 [Compound 59, 8-chloro-N-(2-(1-hydroxycyclopentyl)ethyl)-3-(2-methoxyethyl)indolizine-1-carboxamide] was tested. Which pIC50 (P2X7 [2]) did it give?
Answer: The pIC50 was < 6.00.

Question: With CC(CO)c1cc(C(=O)NCC2CCC(F)(F)CC2)c2c(Cl)cccn12 (centres unmarked) [Compound 75, 8-Chloro-3-(2-hydroxy-1-methyl-ethyl)-indolizine-1-carboxylic Acid (4,4-difluoro-cyclohexylmethyl)-amide] as the molecule, how does the pIC50 (P2X7 [1]) read?
Answer: Its pIC50 is 7.00 to 8.00.

Question: With COCCc1cc(C(=O)NCC2(O)CCC(F)(F)CC2)c2c(C(F)(F)F)cccn12 [Compound 49, 3-(2-Methoxy-ethyl)-8-trifluoromethyl-indolizine-1-carboxylic Acid (4,4-difluoro-1-hydroxy cyclohexylmethyl)-amide] as the molecule, how does the pIC50 (P2X7 [1]) read?
Answer: Its pIC50 is 6.30 to 7.00.

Question: O=C(NCC1(O)CCCC(F)(F)C1)c1cc(CCO)n2cccc(Cl)c12 (centres unmarked) [Compound 68, 8-Chloro-3-(2-hydroxy-ethyl)-indolizine-1-carboxylic Acid (3,3-difluoro-1-hydroxy-cyclohexylmethyl)-amide] was tested. Which pIC50 (P2X7 [1]) did it give?
Answer: The pIC50 was 7.00 to 8.00.

Question: How did the pIC50 (P2X7 [1]) turn out when O=C(NCC1CCC(F)(F)CC1)c1cc(C2(O)COC2)n2cccc(Cl)c12 [Compound 58, 8-Chloro-3-(3-hydroxy-oxetan-3-yl)-indolizine-1-carboxylic acid (4,4-difluoro-cyclohexylmethyl)-amide] was run?
Answer: Its pIC50 is 6.30 to 7.00.

Question: How did the pIC50 (P2X7 [1]) turn out when CC1CC(O)(CNC(=O)c2cc(C3CCC3)n3cccc(Cl)c23)CCC1(F)F (centres unmarked) [Compound 7, 8-chloro-3-cyclobutyl-N-((4,4-difluoro-1-hydroxy-3-methylcyclohexyl)methyl) indolizine-1-carboxamide] was run?
Answer: Its pIC50 is 6.30 to 7.00.

Question: O=C(NCC1(O)CCCC(C(F)(F)F)C1)c1cc(C2CCC2)n2cccc(Cl)c12 (centres unmarked) [Compound 4, 8-chloro-3-cyclobutyl-N-((1-hydroxy-3-(trifluoromethyl)cyclohexyl)methyl) indolizine-1-carboxamide] was tested. Which pIC50 (P2X7 [1]) did it give?
Answer: The pIC50 was < 6.00.

Question: With COCCc1cc(C(=O)NCC2(O)CCC(F)(F)CC2)c2c(C)cccn12 [Compound 46, 3-(2-Methoxy-ethyl)-8-methyl-indolizine-1-carboxylic Acid (4,4-difluoro-1-hydroxy-cyclohexylmethyl)-amide] as the molecule, how does the pIC50 (P2X7 [1]) read?
Answer: The pIC50 was 6.30 to 7.00.

Question: With O=C(NCC1(O)CCCC(C(F)(F)F)C1)c1cc(C2CCOCC2)n2cccc(Cl)c12 (centres unmarked) [Compound 28, 8-chloro-N-((1-hydroxy-3-(trifluoromethyl)cyclohexyl)methyl)-3-(tetrahydro-2H-pyran-4-yl)indolizine-1-carboxamide] as the molecule, how does the pIC50 (P2X7 [1]) read?
Answer: Its pIC50 is 6.00 to 6.30.

Question: With CCOCCc1cc(C(=O)NCC2CCC(F)(F)CC2)c2c(Cl)cccn12 [Compound 19, 8-Chloro-3-(2-ethoxy-ethyl)-indolizine-1-carboxylic Acid (4,4-difluoro-cyclohexylmethyl)-amide] as the molecule, how does the pIC50 (P2X7 [1]) read?
Answer: Its pIC50 is 6.30 to 7.00.

Question: CC1CC(O)(CNC(=O)c2cc(C3CCOC3)n3cccc(Cl)c23)CCC1(F)F (centres unmarked) [Compound 44, 8-chloro-N-((4,4-difluoro-1-hydroxy-3-methylcyclohexyl)methyl)-3-(tetrahydrofuran-3-yl)indolizine-1-carboxamide] was tested. Which pIC50 (P2X7 [1]) did it give?
Answer: Its pIC50 is 6.30 to 7.00.

Question: With O=C(NCC1(O)CCC(F)(F)CC1)c1cc(C2CCOCC2)n2cccc(Cl)c12 [Compound 56, 8-chloro-N-((4,4-difluoro-1-hydroxycyclohexyl)methyl)-3-(tetrahydro-2H-pyran-4-yl)indolizine-1-carboxamide] as the molecule, how does the pIC50 (P2X7 [1]) read?
Answer: The pIC50 was 7.00 to 8.00.

Question: How did the pIC50 (P2X7 [1]) turn out when O=C(NCC1CCC(F)(F)CC1)c1cc(C2(O)CCOC2)n2cccc(Cl)c12 (centres unmarked) [Compound 55, 8-chloro-N-((4,4-difluorocyclohexyl)methyl)-3-(3-hydroxytetrahydrofuran-3-yl)indolizine-1-carboxamide] was run?
Answer: Its pIC50 is 6.30 to 7.00.

Question: How did the pIC50 (P2X7 [1]) turn out when O=C(NCC1CCC(F)(F)CC1)c1cc(C2CCOCC2)n2cccc(Cl)c12 [Compound 33, 8-chloro-N-((4,4-difluorocyclohexyl)methyl)-3-(tetrahydro-2H-pyran-4-yl)indolizine-1-carboxamide] was run?
Answer: The pIC50 was 7.00 to 8.00.

Question: O=C(NCC1CCC(F)(F)CC1)c1cc(CCF)n2cccc(Cl)c12 [Compound 34, 8-Chloro-3-(2-fluoro-ethyl)-indolizine-1-carboxylic Acid (4,4-difluoro-cyclohexylmethyl)-amide] was tested. Which pIC50 (P2X7 [1]) did it give?
Answer: Its pIC50 is 7.00 to 8.00.
